Tested on: BCR-ABL
Test: effect of the buffer surfactant on BCR-ABL kinase activity in the in vitro kinase radio assay
Assay type: biochemical
Details: 0.1% in all buffers
Description: Off-Chip And On-Chip In Vitro Kinase Radio Assays were performed for comparison. In vitro kinase assays were performed using established protocols for bead-based immunoaffinity capture of a specific kinase followed by kinase reactions in the presence of a kinase-specific peptide substrate and ^32P labeled ATP. The microfluidic on-chip assay was developed using reagents that were compatible and efficient in the context of microfluidic channels and valves. For the microfluidic assay, 0.1% n-dodecyl-beta-D-maltoside (DDM) was added to all buffers to prevent bead clumping (indicated by /DDM in the buffer name). […] For BCR-ABL kinase immunocapture, the off-chip assay used agarose protein NG beads (40-160 μm; Pierce, Rockford, Ill.) and the on-chip assay used smaller and more sturdy Protein G polystyrene beads (6.7 μm; Spherotech Inc., Lake Forest, Calif.). The large average size and fragility of the agarose beads precluded their use on-chip, and the small size of the polystyrene beads made them impractical for the pipeting-based off-chip assay. Both bead types were coated with anti-c-ABL antibody (OP20, EMD Chemicals).

- effect on BCR-ABL kinase activity: no detectable effect
SMILES: CCCCCCCCCCCCO[C@@H]1O[C@H](CO)[C@@H](O[C@H]2O[C@H](CO)[C@@H](O)[C@H](O)[C@H]2O)[C@H](O)[C@H]1O [DDM, n-dodecyl-beta-D-maltoside]

Reference: patent US20130244257A1, “INTEGRATED MICROFLUIDIC RADIOASSAY AND IMAGING PLATFORM FOR SMALL SAMPLE ANALYSIS” (THE REGENTS OF THE UNIVERSITY OF CALIFORNIA, priority 2010, published 2013)
